The source of these data is patent publication US4419123A, “Herbicidal 4-trifluoromethyl-3'-carbon-substituted-4'-substituted diphenyl ethers” (Rohm and Haas Company, priority 1981, dated 1983).

Data set [1] in a line: Preemergence herbicidal activity (% control) against dicot weeds. As to conditions: pre-emergence, 336 h; for activity at 2241.7 g/ha: read-out: Herbicidal activity (% control), preemergence, dicots, 2 lb./A., average, about two weeks after application; for activity at 4483.4 g/ha: read-out: Herbicidal activity (% control), preemergence, dicots, 4 lb./A., average, about two weeks after application.

Another data set deals with peanuts. In words: Crop tolerance (selective herbicidal activity), peanuts. Type of data set: in vivo. The method, then:
(§1) The following test procedure is employed.
(§2) Following the general test procedure of Example 37, diphenyl ethers are evaluated for significant tolerance (as shown by 50% or less kill of the test crop at levels of application which give more than 50% kill of many or all of the weeds of Example 73) towards some or all of the following common agronomic crops (not all compounds tested against all crops): alfalfa, snapbeans, corn, cotton, cucumbers, peanuts, rape, rice, safflower, soybeans, tomatoes, and wheat.

In the next data set the test system is rice. In words: Crop tolerance (selective herbicidal activity), rice. The data set is classed as in vivo. On the procedure:
as §1, §2

The nature of data set [2]: Preemergence herbicidal activity (% control) against monocot weeds. The data set is classed as in vivo. The following applies: pre-emergence, 336 h, average, about two weeks after application, read-out: Herbicidal activity (% control), preemergence, monocots; for activity at 2241.7 g/ha: 2 lb./A.; for activity at 4483.4 g/ha: 4 lb./A.
From the text: (§3) barnyardgrass (Echinochloa crusgalli) crabgrass (Digitaria spp.) nutsedge (Cyperus esculentus)
(§4) At 2 and 4 pounds per acre:
(§5) **Bermudagrass (Cynodon dactylon)
(§6) *downy brome (Bromus tectorum) foxtail (Setaria faberii)
(§7) Johnsongrass (Sorghum halepense) […]
(§8) quackgrass (Agropyron repens)
(§9) *ryegrass (Lolium perenne)
(§10) *wild oats (Avena factua)
(§11) *yellow millet (Panicum miliaceum)
as §1

The next data set deals with wheat. In words: Crop tolerance (selective herbicidal activity), wheat. The data set is classed as in vivo. The method, then: as §1, §2
In the next data set the test system is soybeans. Description: Crop tolerance (selective herbicidal activity), soybeans. Type of data set: in vivo. The method, then: as §1, §2
In the next data set the test system is corn. Description: Crop tolerance (selective herbicidal activity), corn. The data set is classed as in vivo. The method, then:
as §1, §2

Data set [3] can be described thus: Postemergence herbicidal activity (% control) against monocot weeds. The data set is classed as in vivo. The following applies: post-emergence, 336 h, average, about two weeks after application, read-out: Herbicidal activity (% control), postemergence, monocots; for activity at 2241.7 g/ha: 2 lb./A.; for activity at 4483.4 g/ha: 4 lb./A.
From the text: as §3, §4, §5, §6, §7, §8, §9, §10, §11, §1

Data set [4] can be described thus: Postemergence herbicidal activity (% control) against dicot weeds. As to conditions: post-emergence, 336 h; for activity at 2241.7 g/ha: read-out: Herbicidal activity (% control), postemergence, dicots, 2 lb./A., average, about two weeks after application; for activity at 4483.4 g/ha: read-out: Herbicidal activity (% control), postemergence, dicots, 4 lb./A., average, about two weeks after application.

[5] abbreviates: postemergence applications or applications on transplanted rice.

Each structure is given as a SMILES string.

For `CCC(=O)Nc1cc(Oc2ccc(C(F)(F)F)cc2Cl)ccc1[N+](=O)[O-]` [Example 34], the activity at 2241.7 g/ha in [1] turned out to be 85%; in data set [2] it was 83%; in data set [3], 47%; in data set [4], 90%. In addition, the activity at 4483.4 g/ha in data set [1] amounted to 52%; in [2] it was 35%; in [3], 32%; in data set [4], 89%. Also, the Tolerance to peanuts result with peanuts (postemergence applications) and in the data set with peanuts (preemergence applications) was “Tolerance (significant tolerance (as shown by 50% or less kill of the test crop at levels of application which give more than 50% kill of many or all of the weeds of Example 73))” throughout. In addition, the Tolerance to rice entry in the data set with rice (setting [5]) and with rice (preemergence applications) was “Tolerance (significant tolerance (as shown by 50% or less kill of the test crop at levels of application which give more than 50% kill of many or all of the weeds of Example 73))” each time. Also, the Tolerance to wheat result with wheat (postemergence applications) and in the data set with wheat (preemergence applications) was “Tolerance (significant tolerance (as shown by 50% or less kill of the test crop at levels of application which give more than 50% kill of many or all of the weeds of Example 73))” each time. Besides, the Tolerance to soybeans entry in the data set on soybeans (postemergence or layby applications) and with soybeans (preemergence applications) was “Tolerance (significant tolerance (as shown by 50% or less kill of the test crop at levels of application which give more than 50% kill of many or all of the weeds of Example 73))” throughout. Further, the Tolerance to corn result in the data set with corn (postemergence applications) and in the data set with corn (preemergence applications) was “Tolerance (significant tolerance (as shown by 50% or less kill of the test crop at levels of application which give more than 50% kill of many or all of the weeds of Example 73))” in each case.
Regarding `CCN(CCO)c1cc(Oc2ccc(C(F)(F)F)cc2Cl)ccc1[N+](=O)[O-]` [Example 54], the activity at 4483.4 g/ha came to 75% in data set [1], 83% in [2], 79% in [3] and 100% in data set [4]. The Tolerance to peanuts result in the data set on peanuts (postemergence applications) was “Tolerance (significant tolerance (as shown by 50% or less kill of the test crop at levels of application which give more than 50% kill of many or all of the weeds of Example 73))”. For the same compound, the Tolerance to rice result with rice (setting [5]) and in the data set with rice (preemergence applications) was “Tolerance (significant tolerance (as shown by 50% or less kill of the test crop at levels of application which give more than 50% kill of many or all of the weeds of Example 73))” throughout. For the same compound, the activity at 2241.7 g/ha in [2] worked out at 98%; in [3], 71%; in data set [4] it was 100%. For the same compound, the Tolerance to wheat entry in the data set with wheat (postemergence applications) and in the data set on wheat (preemergence applications) was “Tolerance (significant tolerance (as shown by 50% or less kill of the test crop at levels of application which give more than 50% kill of many or all of the weeds of Example 73))” throughout. For the same compound, the Tolerance to soybeans result with soybeans (preemergence applications) is given as “Tolerance (significant tolerance (as shown by 50% or less kill of the test crop at levels of application which give more than 50% kill of many or all of the weeds of Example 73))”. Also, the Tolerance to corn result with corn (postemergence applications) and with corn (preemergence applications) was “Tolerance (significant tolerance (as shown by 50% or less kill of the test crop at levels of application which give more than 50% kill of many or all of the weeds of Example 73))” throughout.
Turning to `CC(=O)Oc1cc(Oc2ccc(C(F)(F)F)cc2Cl)ccc1[N+](=O)[O-]` [Example 18, 2-Chloro-α,α,α-trifluoro-p-tolyl-3-acetoxy-4-nitrophenylether], the activity at 2241.7 g/ha in data set [1] is 100%; in [2], 99%; in [3] it was 28%; in [4], 98%. In addition, the activity at 4483.4 g/ha worked out at 100% in [1], 67% in [2], 28% in [3] and 86% in [4]. In the data set with peanuts (postemergence applications), the Tolerance to peanuts entry is “Tolerance (significant tolerance (as shown by 50% or less kill of the test crop at levels of application which give more than 50% kill of many or all of the weeds of Example 73))”. Moreover, in the data set on rice (setting [5]), the Tolerance to rice result is listed as “Tolerance (significant tolerance (as shown by 50% or less kill of the test crop at levels of application which give more than 50% kill of many or all of the weeds of Example 73))”. Also, the Tolerance to wheat entry in the data set with wheat (postemergence applications) and with wheat (preemergence applications) was “Tolerance (significant tolerance (as shown by 50% or less kill of the test crop at levels of application which give more than 50% kill of many or all of the weeds of Example 73))” throughout. For the same compound, the Tolerance to soybeans entry with soybeans (preemergence applications) was “Tolerance (significant tolerance (as shown by 50% or less kill of the test crop at levels of application which give more than 50% kill of many or all of the weeds of Example 73))”. In the data set with corn (postemergence applications), the Tolerance to corn entry is “Tolerance (significant tolerance (as shown by 50% or less kill of the test crop at levels of application which give more than 50% kill of many or all of the weeds of Example 73))”.
On to `CSCCOc1cc(Oc2ccc(C(F)(F)F)cc2Cl)ccc1[N+](=O)[O-]` [Example 40], for which the activity at 2241.7 g/ha in data set [1] is 98%; in data set [2], 88%; in [3], 81%; in data set [4], 100%. The activity at 4483.4 g/ha came to 92% in data set [1], 86% in [2], 64% in data set [3] and 100% in data set [4]. In addition, the Tolerance to peanuts result with peanuts (postemergence applications) and in the data set on peanuts (preemergence applications) was “Tolerance (significant tolerance (as shown by 50% or less kill of the test crop at levels of application which give more than 50% kill of many or all of the weeds of Example 73))” in each case. For the same compound, the Tolerance to rice entry with rice (setting [5]) and with rice (preemergence applications) was “Tolerance (significant tolerance (as shown by 50% or less kill of the test crop at levels of application which give more than 50% kill of many or all of the weeds of Example 73))” in each case. The Tolerance to wheat result with wheat (preemergence applications) was “Tolerance (significant tolerance (as shown by 50% or less kill of the test crop at levels of application which give more than 50% kill of many or all of the weeds of Example 73))”. Moreover, in the data set on soybeans (preemergence applications), the Tolerance to soybeans result was “Tolerance (significant tolerance (as shown by 50% or less kill of the test crop at levels of application which give more than 50% kill of many or all of the weeds of Example 73))”. The Tolerance to corn result in the data set on corn (postemergence applications) and in the data set with corn (preemergence applications) was “Tolerance (significant tolerance (as shown by 50% or less kill of the test crop at levels of application which give more than 50% kill of many or all of the weeds of Example 73))” each time.
